# Reference: the RepoRT retention time repository (doi:10.1007/s00216-015-8540-6)
# Test: Waters Atlantis T3, 100 × 2.1 mm, 3 µm, 0.1 mL/min, estimated dead time 2.2 min; A: water + 0.01% formic acid; B: methanol + 0.01% formic acid; gradient (min/%B) 0/5 3/5 20/100 29/100
# Details: stereoisomer not certain
row,SMILES,LC retention time [min]
1,CCC1OC(=O)CC(O)C(C)C(OC2OC(C)C(OC3CC(C)(O)C(O)C(C)O3)C(N(C)C)C2O)C(CC=O)CC(C)C(=O)C=CC(C)=CC1COC1OC(C)C(O)C(OC)C1OC (stereo unspecified),17.6
2,COc1ccc(C(CN(C)C)C2(O)CCCCC2)cc1 (stereo unspecified),15.7
3,CCCCC(=O)N(Cc1ccc(-c2ccccc2-c2nn[nH]n2)cc1)C(C(=O)O)C(C)C (stereo unspecified),24.4
4,CNCCC=C1c2ccccc2CCc2ccccc21,18
5,CC(=O)OC1C=CC2C3Cc4ccc(O)c5c4C2(CCN3C)C1O5 (stereo unspecified),12.5
6,CNC(C)Cc1ccc2c(c1)OCO2 (stereo unspecified),13
7,CN1C2CCC1C(C(=O)O)C(OC(=O)c1ccccc1)C2 (stereo unspecified),15.7
8,CN=C(NC#N)NCCSCc1nc[nH]c1C,11.5
9,CN(C)CCC=C1c2ccccc2CCc2ccccc21,17.9
10,Cc1noc(NS(=O)(=O)c2ccc(N)cc2)c1C,14.6
11,CC12CCC(=O)C=C1CCC1C2C(O)CC2(C)C1CCC2(O)C(=O)CO (stereo unspecified),20.6
12,CC12CCC(=O)C=C1CCC1C2C(=O)CC2(C)C1CCC2(O)C(=O)CO (stereo unspecified),20
13,CCOP(=O)(Sc1ccccc1)Sc1ccccc1,16.2
14,CN(C)C1C(=O)C(C(N)=O)=C(O)C2(O)C(=O)C3=C(O)c4c(O)cccc4C(C)(O)C3CC12 (stereo unspecified),14.5
15,COc1cc(Cc2cnc(N)nc2N)cc(OC)c1OC,12.9
16,CNC(C)C(O)c1ccccc1 (stereo unspecified),11.7
17,C=CC1(C)CC(OC(=O)CSCCN(CC)CC)C2(C)C(C)CCC3(CCC(=O)C32)C(C)C1O (stereo unspecified),17.3
18,CC(C)NCC(O)COc1ccc(CC(N)=O)cc1 (stereo unspecified),11.3
19,CN1CCN2c3ncc(O)cc3Cc3ccccc3C2C1 (stereo unspecified),13.6
20,COc1cccc(C2(O)CCCCC2CN(C)C)c1 (stereo unspecified),14.2
21,CC1(C)OC2COC3(COS(N)(=O)=O)OC(C)(C)OC3C2O1 (stereo unspecified),18.3
22,CNC(=C[N+](=O)[O-])NCCSCc1ccc(CN(C)C)o1,11.4

row,SMILES,LC retention time [min]
1,CN(C)CCCN1c2ccccc2CCc2ccccc21,17.6
2,CCN(CC)CC(=O)Nc1c(C)cccc1C,13.4
3,COc1ccc2nc(S(=O)Cc3ncc(C)c(OC)c3C)[nH]c2c1 (stereo unspecified),18.7
4,CC1=C(C(=O)O)N2C(=O)C(NC(=O)C(N)c3ccccc3)C2SC1 (stereo unspecified),11.8
5,CCCCCc1cc(O)c2c(c1C(=O)O)OC(C)(C)C1CCC(C)=CC21 (stereo unspecified),26.9
6,CC1CC2C(C(O)CC3(C)C2CCC3(O)C(=O)CO)C2(C)C=CC(=O)C=C12 (stereo unspecified),21.4
7,Cn1c(=O)c2c(ncn2C)n(C)c1=O,15.2
8,CCC(C(N)=O)N1CCCC1=O (stereo unspecified),13.7
9,CC(C)NCC(O)COc1cccc2ccccc12 (stereo unspecified),16.2
10,NC(=O)N1c2ccccc2C=Cc2ccccc21,20.2
11,COC(=O)C1C(OC(=O)c2ccccc2)CC2CCC1N2C (stereo unspecified),14.3
12,CCOc1cc(OC)c(OCC)cc1CC(C)N (stereo unspecified),3.15
13,CCC(C)(C)C(=O)OC1CC(C)C=C2C=CC(C)C(CCC3CC(O)CC(=O)O3)C21 (stereo unspecified),27.1
14,CN1CCN2c3ncccc3Cc3ccccc3C2C1 (stereo unspecified),14.6
15,CN(C)CCC=C1c2ccccc2COc2ccccc21,16.7
16,CCNC(C)Cc1ccc2c(c1)OCO2 (stereo unspecified),13.4
17,COCCc1ccc(OCC(O)CNC(C)C)cc1 (stereo unspecified),11.2
18,CC(N)Cc1ccc2c(c1)OCO2 (stereo unspecified),12.9
19,CCC1(c2ccccc2)C(=O)NCNC1=O,17.1
20,COc1ccc2c3c1OC1C(O)C=CC4C(C2)N(C)CCC341 (stereo unspecified),11.8
21,CC1(C)SC2C(NC(=O)C(N)c3ccc(O)cc3)C(=O)N2C1C(=O)O (stereo unspecified),11.2
22,CN(C)C1C(=O)C(C(N)=O)=C(O)C2(O)C(=O)C3=C(O)c4c(O)cccc4C(C)(O)C3C(O)C12 (stereo unspecified),14.8

row,SMILES,LC retention time [min]
1,CC(N)Cc1ccccc1 (stereo unspecified),12.6
2,O=C1CN=C(c2ccccc2)c2cc([N+](=O)[O-])ccc2N1,20.4
3,CN1CCC23c4c5ccc(O)c4OC2C(O)C=CC3C1C5 (stereo unspecified),9.52
4,CC(=O)C1CCC2C3CCC4=CC(=O)CCC4(C)C3CCC12C (stereo unspecified),24.8
5,CC(=O)Oc1ccc2c3c1OC1C(OC(C)=O)C=CC4C(C2)N(C)CCC341 (stereo unspecified),14.1
6,CN(C)C(=N)N=C(N)N,3.04
7,CCn1cc(C(=O)O)c(=O)c2cc3c(cc21)OCO3,18.3
8,CC(=O)Nc1ccc(O)cc1,13.3
9,Cn1c([N+](=O)[O-])cnc1COC(N)=O,13.2
10,CC1=C(C(=O)O)N2C(=O)C(NC(=O)C(N)c3ccc(O)cc3)C2SC1 (stereo unspecified),11.8
11,Cc1nnc(SCC2=C(C(=O)O)N3C(=O)C(NC(=O)Cn4cnnn4)C3SC2)s1 (stereo unspecified),17.6
12,COC12CCC3(CC1C(C)(O)C(C)(C)C)C1Cc4ccc(O)c5c4C3(CCN1CC1CC1)C2O5 (stereo unspecified),16.8
13,CC(C(=O)O)c1cccc(C(=O)c2ccccc2)c1 (stereo unspecified),21.8
14,CCC(=O)C(CC(C)N(C)C)(c1ccccc1)c1ccccc1 (stereo unspecified),17.6
15,CCN(CC)C(=O)C1C=C2c3cccc4[nH]cc(c34)CC2N(C)C1 (stereo unspecified),15.1
16,Cc1ncc([N+](=O)[O-])n1CCO,13.3
17,COc1ccc2c3c1OC1C(=O)CCC4(O)C(C2)N(C)CCC314 (stereo unspecified),12.1
18,CNC(C)Cc1ccccc1 (stereo unspecified),12.8
19,CC(N)C(O)c1ccccc1 (stereo unspecified),10.9
20,CCC1OC(=O)C(C)C(OC2CC(C)(OC)C(O)C(C)O2)C(C)C(OC2OC(C)CC(N(C)C)C2O)C(C)(O)CC(C)CN(C)C(C)C(O)C1(C)O (stereo unspecified),18.7
21,CCC1OC(=O)C(C)C(OC2CC(C)(OC)C(O)C(C)O2)C(C)C(OC2OC(C)CC(N(C)C)C2O)C(C)(OC)CC(C)C(=O)C(C)C(O)C1(C)O (stereo unspecified),18.7
22,Cc1cc2c(s1)Nc1ccccc1N=C2N1CCN(C)CC1,12.6
